From EPA's ToxValDB 9.5 (doi:10.2903/j.efsa.2008.151r)

Assays:
Typhlodromus pyri = experiment: LR50; higher = less toxic; conditions: not reported; mortality
Tagia sp. = conditions: acute; duration: 14 days; mortality
Lepomis macrochirus = conditions: chronic/long-term; duration: 28 days; body weight
Oryctolagus sp. = conditions: developmental; development
Canidae = conditions: subchronic; duration: 90 days; oral; Dog Other; body weight
Daphnia magna = conditions: chronic/long-term; duration: 21 days; reproduction
[1] = reproduction developmental, reproduction

## CC(C)C(O)(c1ccc(OC(F)(F)F)cc1)c1cncnc1 (configuration not stated) [Flurprimidol]
Typhlodromus pyri
  LR50: > 29.6 g/ha
Tagia sp.
  NOEC: 62.6 mg/kg
Lepomis macrochirus
  NOEC: 0.42 mg/L
Oryctolagus sp.
  NOAEL: 9 mg/kg-day
Rattus norvegicus; chronic, duration: 2 years, organ weight
  LOAEL: 1 mg/kg-day
Rattus norvegicus; developmental, development
  NOAEL: 10 mg/kg-day
Rattus norvegicus; [1]
  NOAEL: 1.8 mg/kg-day
  NOEL: 1.8 mg/kg-day
Rattus norvegicus; short-term, oral, diet, body weight
  NOEL: 1.62 mg/kg-day
Rattus norvegicus; subchronic, duration: 90 days, oral, F, organ weight
  NOAEL: 1.96 mg/kg-day
Canidae
  NOAEL: 1.5 mg/kg-day
Daphnia magna
  NOEC: 1.7 mg/L
